In patent US4103085A, “7-(Syn-α-alkoxy-iminofurylacetamido-3-(2-carboxyalkyl-2,3-dihy dro-s-triazolo[4,3-b]pyridazin-3-on-6-ylthiomethyl)-3-cephem-4-carboxylic acids” (Bristol-Myers Company, priority 1977, dated 1978):
≈ marks a conversion by molar mass, not a printed value. Structures can show the parent of a compound that is named as a salt.

Experiments:
Format in all cases: cell-based
S. aureus (3 strains) = assay: In vitro activity, Mueller-Hinton agar, serial dilution method (Table 1); conditions: Staphylococcus aureus, read-out: Geometric Mean of MIC
Proteus (6) = assay: as above; conditions: read-out: Geometric Mean of MIC
N. gonorrhoeae (5) = assay: as above; conditions: Neisseria gonorrhoeae, read-out: Geometric Mean of MIC
H. influenzae (7) = assay: as above; conditions: Haemophilus influenzae, read-out: Geometric Mean of MIC
Kl. pneumoniae (4) = assay: as above; conditions: Klebsiella pneumoniae, read-out: Geometric Mean of MIC
Excerpt: (§1) In vitro Activity Using Mueller-Hinton Agar
(§2) By the Serial Dilution Method

[1] = tested on: Shig. (3), Serr. (1) (1), Sal. (2); assay: as above; conditions: read-out: Geometric Mean of MIC
Excerpt: as §1, §2

N. meningitidis (5) = assay: as above; conditions: Neisseria meningitidis, read-out: Geometric Mean of MIC
E. coli (7) = assay: as above; conditions: Escherichia coli, read-out: Geometric Mean of MIC
D. pneumoniae (5) = assay: as above; conditions: Streptococcus pneumoniae, read-out: Geometric Mean of MIC
[2] = tested on: B. anthracis (1) S. pyrogenes (5); assay: microbe, parasite or virus in culture; conditions: Bacillus anthracis, read-out: Geometric Mean of MIC
S. viridans (5) = assay: In vitro activity, Mueller-Hinton agar, serial dilution method (Table 1); conditions: Streptococcus viridans, read-out: Geometric Mean of MIC
[3] = tested on: Indole(+) Proteus, Cephalosporin-R; assay: MICs in Mueller-Hinton agar (Table 2); conditions: 2 strains, read-out: Geometric Means of MIC's
Excerpt: (§3) Geometric Means of MIC's Against 3 Strains
(§4) of S. aureus and 27 Strains of Gram-negative Bacteria
(§5) (mcg./ml., Mueller-Hinton Agar)

E. cloacae = assay: MICs in Mueller-Hinton agar (Table 2); conditions: Enterobacter cloacae, 1 strain, read-out: Geometric Means of MIC's
Excerpt: as §3, §4, §5

K. pneumoniae = assay: MICs in Mueller-Hinton agar (Table 2); conditions: Klebsiella pneumoniae, 4 strains, read-out: Geometric Means of MIC's
Excerpt: as §3, §4, §5

Indole(+) Proteus = assay: MICs in Mueller-Hinton agar (Table 2); conditions: 3 strains, read-out: Geometric Means of MIC's
Excerpt: as §3, §4, §5

P. aeruginosa = assay: MICs in Mueller-Hinton agar (Table 2); conditions: Pseudomonas aeruginosa, 2 strains, read-out: Geometric Means of MIC's
Excerpt: as §3, §4, §5

E. coli, Cephalosporin-R = assay: MICs in Mueller-Hinton agar (Table 2); conditions: Escherichia coli, 1 strain, read-out: Geometric Means of MIC's
Excerpt: as §3, §4, §5

S. marcescens [4] = assay: MICs in Mueller-Hinton agar (Table 2); conditions: Serratia marcescens, 1 strain, read-out: Geometric Means of MIC's
Excerpt: as §3, §4, §5

E. coli = assay: MICs in Mueller-Hinton agar (Table 2); conditions: Escherichia coli, 6 strains, read-out: Geometric Means of MIC's
Excerpt: as §3, §4, §5

S. aureus, Penicillin-R = assay: MICs in Mueller-Hinton agar (Table 2); conditions: Staphylococcus aureus, 2 strains, read-out: Geometric Means of MIC's
Excerpt: as §3, §4, §5

Shigella, Salmonella = assay: MICs in Mueller-Hinton agar (Table 2); conditions: 5 strains, read-out: Geometric Means of MIC's
Excerpt: as §3, §4, §5

Indole (-) Proteus = assay: MICs in Mueller-Hinton agar (Table 2); conditions: 2 strains, read-out: Geometric Means of MIC's
Excerpt: as §3, §4, §5

S. marcescens [5] = assay: MICs against 18 strains of S. marcescens (Table 3); conditions: Serratia marcescens, read-out: Geometric Means of MIC's
Excerpt: Geometric Means of MIC's Against 18 Strains

S. aureus = assay: MICs in Mueller-Hinton agar (Table 2); conditions: Staphylococcus aureus, 1 strain, read-out: Geometric Means of MIC's
Excerpt: as §3, §4, §5

SMILES	MIC (S. aureus (3 strains))	MIC (Proteus (6))	MIC (N. gonorrhoeae (5))	MIC (H. influenzae (7))	MIC (Kl. pneumoniae (4))	MIC [1]	MIC (N. meningitidis (5))	MIC (E. coli (7))	MIC (D. pneumoniae (5))	MIC [2]	MIC (S. viridans (5))	MIC [3]	MIC (E. cloacae)	MIC (K. pneumoniae)	MIC (Indole(+) Proteus)	MIC (P. aeruginosa)	MIC (E. coli, Cephalosporin-R)	MIC (S. marcescens [4])	MIC (E. coli)	MIC (S. aureus, Penicillin-R)	further results
CO/N=C(\C(=O)N[C@@H]1C(=O)N2C(C(=O)O)=C(CSc3ccc4nn(CCC(=O)O)c(=O)n4n3)CS[C@H]12)c1ccco1 [BB-S526, 7-[(2Z)-2-Methoxyimino(fur-2-yl)acetamido]-3-[2-(2-carboxyethyl)-2,3-dihydro-s-triazolo[4,3-b]pyridazin-3-on-6-ylthiomethyl]-3-cephem-4-carboxylic Acid Sodium Salt]	1.6 µg/mL	0.061 µg/mL	1.6 µg/mL	0.71 µg/mL	0.93 µg/mL	2.41 µg/mL	3.6 µg/mL	0.78 µg/mL	0.056 µg/mL	0.032 µg/mL	0.4 µg/mL	–	–	–	–	–	–	–	–	–	–
NCc1ccccc1CC(=O)N[C@@H]1C(=O)N2C(C(=O)O)=C(CSc3nnnn3CC(=O)O)CS[C@H]12 [BL-S786, 7-[α-(2-aminomethylphenyl)acetamido]-3-[(1-carboxymethyltetrazol-5-lthio)methyl]-3-cephem-4-carboxylic acid, reference compound]	–	–	–	–	–	–	–	–	–	–	–	50.1 µg/mL (≈ 96.4 µM)	1.6 µg/mL (≈ 3.08 µM)	0.3 µg/mL (≈ 0.577 µM)	0.3 µg/mL (≈ 0.577 µM)	> 100 µg/mL	12.5 µg/mL (≈ 24.1 µM)	> 100 µg/mL	0.2 µg/mL (≈ 0.385 µM)	1.6 µg/mL (≈ 3.08 µM)	MIC (Shigella, Salmonella): 0.5 µg/mL (≈ 0.962 µM); MIC (Indole (-) Proteus): 0.2 µg/mL (≈ 0.385 µM); MIC (S. marcescens [5]): 85.9 µg/mL (≈ 165 µM)
CO/N=C(\C(=O)N[C@@H]1C(=O)N2C(C(=O)O)=C(CSc3ccc4nn(CC(=O)O)c(=O)n4n3)CS[C@H]12)c1ccco1 [BB-S511, 7-[(2Z)-2-Methoxyimino(fur-2-yl)acetamido]-3-(2-carboxymethyl-2,3-dihydro-s-triazolo[4,3-b]pyridazin-3-on-6-ylthiomethyl)-3-cephem-4-carboxylic Acid Disodium Salt]	1.97 µg/mL	0.021 µg/mL	1.36 µg/mL	0.64 µg/mL	0.47 µg/mL	1.11 µg/mL	2.37 µg/mL	0.58 µg/mL	0.037 µg/mL	0.032 µg/mL	0.15 µg/mL	6.3 µg/mL	3.1 µg/mL	0.7 µg/mL	0.05 µg/mL	> 100 µg/mL	6.3 µg/mL	25 µg/mL	0.2 µg/mL	0.6 µg/mL	MIC (S. aureus): 1.6 µg/mL; MIC (Shigella, Salmonella): 0.3 µg/mL; MIC (Indole (-) Proteus): 0.1 µg/mL; MIC (S. marcescens [5]): 5.4 µg/mL
CO/N=C(\C(=O)N[C@@H]1C(=O)N2C(C(=O)O)=C(COC(N)=O)CS[C@H]12)c1ccco1 [Cefuroxime, sodium 6R,7R-3-carbamoyloxymethyl-7-(2Z)-2-methoxyimino(fur-2-yl)acetamidoceph-3em-4-carboxylate, reference compound]	1.24 µg/mL	0.88 µg/mL	0.4 µg/mL	1.16 µg/mL	3.1 µg/mL	4.06 µg/mL	1.6 µg/mL	1.28 µg/mL	0.0125 µg/mL	0.025 µg/mL	0.1 µg/mL	–	–	–	–	–	–	–	–	–	–
